Test results published in ChEMBL document CHEMBL3885881, “DrugMatrix”.

Species: Rattus norvegicus
Assay: DrugMatrix - Regimen: Daily Repeat
Type: toxicity, organism-based, Sprague-Dawley
Set-up: regimen Daily Repeat, gender Male, age 6-8 weeks
Details: in vivo, po, route oral GAVAGE, […]; for ABSOLUTE BASOPHIL / ABSOLUTE EOSINOPHIL / ABSOLUTE LYMPHOCYTE / ABSOLUTE MONOCYTE / ABSOLUTE SEGMENTED NEUTROPHIL / BASOPHIL / EOSINOPHIL / ERYTHROCYTE COUNT / HEMATOCRIT / HEMOGLOBIN / LEUKOCYTE COUNT / LYMPHOCYTE / MEAN CORPUSCULAR HEMOGLOBIN / MEAN CORPUSCULAR HEMOGLOBIN CONCENTRATION / MEAN CORPUSCULAR VOLUME / MONOCYTE / NEUTROPHIL / NUCLEATED RED BLOOD CELLS / PLATELET COUNT: tissue Blood; for ALANINE AMINOTRANSFERASE / ALBUMIN / ALKALINE PHOSPHATASE / ASPARTATE AMINOTRANSFERASE / BLOOD UREA NITROGEN / CARBON DIOXIDE / CHLORIDE / CHOLESTEROL / CREATINE PHOSPHOKINASE / CREATININE / GLUCOSE / LACTATE DEHYDROGENASE / LIPASE / PHOSPHORUS / POTASSIUM / SODIUM / TOTAL BILIRUBIN / TOTAL PROTEIN / URIC ACID: tissue Plasma
[1] = 0 mg/kg, 72 h, dose level Control, time 3 day
[2] = 0 mg/kg, 120 h, dose level Control, time 5 day
[3] = 47 mg/kg, 72 h, dose level Low, time 3 day

CC(=O)Nc1nnc(S(N)(=O)=O)s1 [ACETAZOLAMIDE]
ABSOLUTE BASOPHIL [1]: 0 CELLS/uL | ABSOLUTE EOSINOPHIL [1]: 41.83 CELLS/uL | ABSOLUTE LYMPHOCYTE [1]: 8545.5 CELLS/uL | ABSOLUTE MONOCYTE [1]: 240 CELLS/uL | ABSOLUTE SEGMENTED NEUTROPHIL [1]: 906 CELLS/uL | BASOPHIL [1]: 0% | EOSINOPHIL [1]: 0.33% | ERYTHROCYTE COUNT [1]: 5.6 x10E6/uL | HEMATOCRIT [1]: 35.4% | HEMOGLOBIN [1]: 13.42 G/DL | LEUKOCYTE COUNT [1]: 9.73 x10E3/uL | LYMPHOCYTE [1]: 87.83% | MEAN CORPUSCULAR HEMOGLOBIN [1]: 23.98 pg | MEAN CORPUSCULAR HEMOGLOBIN CONCENTRATION [1]: 37.92 G/DL | MEAN CORPUSCULAR VOLUME [1]: 63.3 fL | MONOCYTE [1]: 2.5% | NEUTROPHIL [1]: 9.33% | NUCLEATED RED BLOOD CELLS [1]: 0 /100WBC | PLATELET COUNT [1]: 1032 x10E3/uL | ALANINE AMINOTRANSFERASE [1]: 72.83 u/L | ALBUMIN [1]: 4 G/DL | ALKALINE PHOSPHATASE [1]: 322.83 u/L | ASPARTATE AMINOTRANSFERASE [1]: 102.67 u/L | BLOOD UREA NITROGEN [1]: 12 mg/dL | CARBON DIOXIDE [1]: 34.33 mmol/L | CHLORIDE [1]: 97.67 MEQ/L | CHOLESTEROL [1]: 82.5 mg/dL | CREATINE PHOSPHOKINASE [1]: 410.33 u/L | CREATININE [1]: 0.18 mg/dL | GLUCOSE [1]: 164.5 mg/dL | LACTATE DEHYDROGENASE [1]: 119.5 u/L | LIPASE [1]: 11.83 u/L | PHOSPHORUS [1]: 9.52 mg/dL | POTASSIUM [1]: 5.56 MEQ/L | SODIUM [1]: 142.48 MEQ/L | TOTAL BILIRUBIN [1]: 0.18 mg/dL | TOTAL PROTEIN [1]: 5.77 G/DL | URIC ACID [1]: 0.48 mg/dL | ABSOLUTE BASOPHIL [2]: 0 CELLS/uL | ABSOLUTE EOSINOPHIL [2]: 0 CELLS/uL | ABSOLUTE LYMPHOCYTE [2]: 9065 CELLS/uL | ABSOLUTE MONOCYTE [2]: 341.33 CELLS/uL | ABSOLUTE SEGMENTED NEUTROPHIL [2]: 527 CELLS/uL | BASOPHIL [2]: 0% | EOSINOPHIL [2]: 0% | ERYTHROCYTE COUNT [2]: 5.25 x10E6/uL | HEMATOCRIT [2]: 34.08% | HEMOGLOBIN [2]: 13.5 G/DL | LEUKOCYTE COUNT [2]: 9.93 x10E3/uL | LYMPHOCYTE [2]: 91.17% | MEAN CORPUSCULAR HEMOGLOBIN [2]: 25.7 pg | MEAN CORPUSCULAR HEMOGLOBIN CONCENTRATION [2]: 39.62 G/DL | MEAN CORPUSCULAR VOLUME [2]: 64.93 fL | MONOCYTE [2]: 3.33% | NEUTROPHIL [2]: 5.5% | NUCLEATED RED BLOOD CELLS [2]: 0 /100WBC | PLATELET COUNT [2]: 1077.5 x10E3/uL | ALANINE AMINOTRANSFERASE [2]: 57.83 u/L | ALBUMIN [2]: 4.07 G/DL | ALKALINE PHOSPHATASE [2]: 319.17 u/L | ASPARTATE AMINOTRANSFERASE [2]: 83.33 u/L | BLOOD UREA NITROGEN [2]: 13.67 mg/dL | CARBON DIOXIDE [2]: 30.83 mmol/L | CHLORIDE [2]: 98.33 MEQ/L | CHOLESTEROL [2]: 64.83 mg/dL | CREATINE PHOSPHOKINASE [2]: 263.67 u/L | CREATININE [2]: 0.2 mg/dL | GLUCOSE [2]: 182.83 mg/dL | LACTATE DEHYDROGENASE [2]: 124 u/L | LIPASE [2]: 10.5 u/L | PHOSPHORUS [2]: 10 mg/dL | POTASSIUM [2]: 5.78 MEQ/L | SODIUM [2]: 142.48 MEQ/L | TOTAL BILIRUBIN [2]: 0.2 mg/dL | TOTAL PROTEIN [2]: 6 G/DL | URIC ACID [2]: 0.7 mg/dL | ABSOLUTE BASOPHIL [3]: 0 CELLS/uL | ABSOLUTE EOSINOPHIL [3]: 0 CELLS/uL | ABSOLUTE LYMPHOCYTE [3]: 9847 CELLS/uL | ABSOLUTE MONOCYTE [3]: 251.33 CELLS/uL | ABSOLUTE SEGMENTED NEUTROPHIL [3]: 935 CELLS/uL | BASOPHIL [3]: 0% | EOSINOPHIL [3]: 0% | ERYTHROCYTE COUNT [3]: 5.11 x10E6/uL | HEMATOCRIT [3]: 32.2% | HEMOGLOBIN [3]: 12.47 G/DL | LEUKOCYTE COUNT [3]: 11.03 x10E3/uL | LYMPHOCYTE [3]: 88.67% | MEAN CORPUSCULAR HEMOGLOBIN [3]: 24.43 pg | MEAN CORPUSCULAR HEMOGLOBIN CONCENTRATION [3]: 38.77 G/DL | MEAN CORPUSCULAR VOLUME [3]: 63 fL | MONOCYTE [3]: 2.33% | NEUTROPHIL [3]: 9% | NUCLEATED RED BLOOD CELLS [3]: 0 /100WBC | PLATELET COUNT [3]: 1122.33 x10E3/uL | ALANINE AMINOTRANSFERASE [3]: 67 u/L | ALBUMIN [3]: 3.77 G/DL | ALKALINE PHOSPHATASE [3]: 486.33 u/L | ASPARTATE AMINOTRANSFERASE [3]: 91.33 u/L | BLOOD UREA NITROGEN [3]: 11.33 mg/dL | CARBON DIOXIDE [3]: 31 mmol/L | CHLORIDE [3]: 99 MEQ/L | CHOLESTEROL [3]: 74 mg/dL | CREATINE PHOSPHOKINASE [3]: 250 u/L | CREATININE [3]: 0.31 mg/dL | GLUCOSE [3]: 173 mg/dL | LACTATE DEHYDROGENASE [3]: 140.67 u/L | LIPASE [3]: 13.33 u/L | PHOSPHORUS [3]: 10.33 mg/dL | POTASSIUM [3]: 5.3 MEQ/L | SODIUM [3]: 144.37 MEQ/L | TOTAL BILIRUBIN [3]: 0.23 mg/dL | TOTAL PROTEIN [3]: 5.5 G/DL | URIC ACID [3]: 0.67 mg/dL
